Measurements from patent publication US20090280133A1, “PHARMACEUTICAL COMPOUNDS AS INHIBITORS OF CELL PROLIFERATION AND THE USE THEREOF” (Myriad Genetics, Incorporated, priority 2006, published 2009).

What was measured:
[1] = test system: P388 murine leukemia cell line; assay: Identification of cytotoxic agents: P388 cell viability (ATP-Lite); format: cell-based; conditions: Mus musculus; P388 cells, 72 hours, intracellular ATP (ATP-Lite), concentration required to inhibit growth by 50%
Description: A P388 murine leukemia cell line was obtained from NCI, Frederick, Md. P388 cells were cultured in RPMI-1640 supplemented with 10% fetal bovine serum, 2 mM Glutamax, 1 mM sodium pyruvate, 0.1 mM non-essential amino acids and 10 mM HEPES. Cells were grown at 37° C. in a humidified 5% CO2 atmosphere. Exponentially growing P388 cells were plated at 5,000 cells/well in a 96-well flat-bottomed microtiter plate (Corning, Costar #3595). […] Cellular viability was determined 72 hours later by measuring intracellular ATP with ATP-Lite assay system. The effect of compounds on cell viability was calculated by comparing the ATP levels of cells exposed to test compound with those of cells exposed to DMSO. A semi-log plot of relative ATP levels versus compound concentration was used to calculate the compound concentration required to inhibit growth by 50% (IC50). Data was analyzed by Prism software (GraphPad; San Diego, Calif.) by fitting it to a sigmoidal dose response curve.

[2] = test system: P388/ADR cell lines (overexpress multidrug resistance pump MDR-1); assay: Multidrug resistant cell assay: P388/ADR cell viability (ATP-lite); format: cell-based; conditions: Mus musculus, P388/ADR cells overexpressing MDR-1 (Pgp-1), 72 hours
Source text: Cytotoxicity of compounds in multidrug resistant cells can be determined by administering compounds to cell lines that overexpress the multidrug resistance pump MDR-1 and determining the viability of the cell lines. P388/ADR cell lines are known to overexpress the multidrug resistance pump MDR-1 (also known as P-glycoprotein-1; Pgp-1).
P388/ADR cell lines are obtained from American Type Culture Collection (Manassas, Va.) and maintained in RPMI-1640 media supplemented with 10% FCS, 10 units/ml penicillin and streptomycin, 2 mM Glutamax and 1 mM sodium pyruvate (Invitrogen Corporation, Carlsbad, Calif.). For compound testing, cells are plated in 96 well dishes at a concentration of 1.5×10^4 cells/well. Cells are allowed to adhere to the plate overnight and then incubated with compounds at final concentrations ranging from 0.13 nM to 10 uM for 72 hours. Cell viability is then assessed using the ATP-lite reagent (Perkin Elmer, Foster City, Calif.). Plates are read on a Wallac Topcount luminescence reader (Perkin Elmer, Foster City, Calif.) and the results graphed in Prism software (Graphpad Software, Inc., San Diego, Calif.). Non-linear regression with variable slope analysis is performed to obtain IC50 concentration values.

Compound | IC50 [2] | IC50 [1]
COC(=O)c1cc(N(C)c2ccc(OC)cc2)nc(Cl)n1 [Example 2, Methyl 2-chloro-6-[(4-methoxyphenyl)(methyl)amino]pyrimidine-4-carboxylate] | – | 9 µM
CCOC(=O)c1cnc(SC)nc1N(C)c1ccc(OC)cc1 [Example 3, Ethyl 4-[(4-methoxyphenyl)(methyl)amino]-2-(methylthio)pyrimidine-5-carboxylate] | 0.078 µM | 0.054 µM
COc1ccc(N(C)c2ccnc(C#N)n2)cc1 [Example 6, 4-[(4-Methoxyphenyl)(methyl)amino]pyrimidine-2-carbonitrile] | – | 6.8 µM
COc1ccc(N(C)c2ccnc(CN)n2)cc1 [Example 9, 2-(Aminomethyl)-N-(4-methoxyphenyl)-N-methylpyrimidin-4-amine] | 3.1 µM | 1.9 µM
COc1ccc(N(C)c2nc(C)ncc2NS(=O)(=O)c2ccc(OC)cc2)cc1 [Example 12, 4-Methoxy-N-{4-[(4-methoxyphenyl)-methylamino]-2-methyl-pyrimidin-5-yl)-benzenesulfonamide] | 0.062 µM | 0.057 µM
COc1ccc(S(=O)(=O)Nc2cnc(C)nc2N(C)c2ccc(O)cc2)cc1 [Example 13, N-{4-[(4-hydroxyphenyl)-methylamino]-2-methyl-pyrimidin-5-yl)-4-methyoxy-benzenesulfonamide] | 7.4 µM | 1.4 µM

Second part, led by results:

IC50 [2] | Compound | IC50 [1]
0.48 µM | COc1ccc(N(C)c2ccnc(Cl)n2)cc1 [Example 1, (2-Chloro-pyrimidin-4-yl)-(4-methoxyphenyl)-methyl amine] | 0.28 µM
1.1 µM | COc1ccc(N(C)c2cc(C)nc(N(C)C)n2)cc1 [Example 4, N^4-(4-Methoxyphenyl)-N^2,N^2,N^4,6-tetramethylpyrimidine-2,4-diamine] | 1.06 µM
6.2 µM | COc1ccc(N(C)c2ccnc(N(C)C)n2)cc1 [Example 5, N^4-(4-Methoxyphenyl)-N^2,N^2,N^4-trimethylpyrimidine-2,4-diamine] | 7.9 µM
3.9 µM | COc1ccc(N(C)c2cc(C)nc(C#N)n2)cc1 [Example 7, 4-[(4-Methoxyphenyl)(methyl)amino]-6-methylpyrimidine-2-carbonitrile] | 2.5 µM
2.4 µM | COc1ccc(N(C)c2cc(Cl)nc(N)n2)cc1 [Example 8, 6-Chloro-N^4-(4-methoxyphenyl)-N^4-methylpyrimidine-2,4-diamine] | 1.9 µM
0.8 µM | COc1ccc(N(C)c2cc(-c3ccccc3)nc(C)n2)cc1 [Example 10] | 1.6 µM
0.4 µM | COc1ccc(N(C)c2cc(C)nc(C)n2)cc1 [Example 11, (2,6-dimethyl-pyrimidin-4-yl)-(4-methoxyphenyl)-methylamine] | 0.31 µM
